This data set can be described thus: CBD accelerated stability study at 40° C. It is filed as physicochemical. The method, then:
In order to assess the stability of cannabidiol formulations, the pH rate profiles over a range of probable pHs were studied. The rate profile with the lowest Kdeg would be desirable in order to ensure a two-year shelf life for a cannabidiol gel. The pH ranges studied were 4.0, 5.0, 5.5, 6.0, 6.5 and 7.0 prepared with either an acetate (0.01M: pH 4.0, 5.0 and 5.5) or phosphate (0.01 M: pH 6.0, 6.5 and 7.0) buffer system and maintained at an ionic strength of 0.154 M with NaCl at 40° C. CBD was prepared at 1 mg/mL and analyzed initially at a theoretical 10 μg/ml concentration. The results of these studies appear in FIGS. 13 and 14.
Additional stability studies were conducted with CBD synthesized by alternate routes. […] Over sixty-five days, the purity of CBD is still greater than 99%.

[1] abbreviates: sixty-five day accelerated stability study at 40° C.

As to `C=C(C)[C@@H]1CCC(C)=C[C@H]1c1c(O)cc(CCCCC)cc1O` [CBD, cannabidiol], the “28.9 min peak as share of the total area compared to the CBD peak” value (65 days in a 40° C. chamber) is given as “approximately 0.74%”. Besides, the “purity of CBD” value (over sixty-five days) is given as “greater than 99%”. Moreover, under setting [1], the degradation result is “no significant degradation” and the purity remaining is reported as over 98%.

(Values after patent US20100273895A1, “FORMULATIONS OF CANNABIDIOL AND PRODRUGS OF CANNABIDIOL AND METHODS OF USING THE SAME” (AllTranz Inc., priority 2009, published 2010).)
